Results from US9067871B2, “Aminotetraline derivatives, pharmaceutical compositions containing them, and their use in therapy” (ABBVIE DEUTSCHLAND GMBH & CO KG, priority 2009, dated 2015).
Counter-ions that a name gives are not always drawn.

Molecular target: human GlyT1c transporter (Homo sapiens (Human), UniProt P48067)
Assay: Radioligand binding assay using recombinant CHO cell membranes expressing human GlyT1
Conditions: human GlyT1c-expressing CHO cell membranes; read-out: radioligand binding Kiapp
From the text: 2. Radioligand binding assays using recombinant CHO cell membranes expressing human GlyT1: […]

Sequence of human GlyT1c transporter (P48067 whole entry): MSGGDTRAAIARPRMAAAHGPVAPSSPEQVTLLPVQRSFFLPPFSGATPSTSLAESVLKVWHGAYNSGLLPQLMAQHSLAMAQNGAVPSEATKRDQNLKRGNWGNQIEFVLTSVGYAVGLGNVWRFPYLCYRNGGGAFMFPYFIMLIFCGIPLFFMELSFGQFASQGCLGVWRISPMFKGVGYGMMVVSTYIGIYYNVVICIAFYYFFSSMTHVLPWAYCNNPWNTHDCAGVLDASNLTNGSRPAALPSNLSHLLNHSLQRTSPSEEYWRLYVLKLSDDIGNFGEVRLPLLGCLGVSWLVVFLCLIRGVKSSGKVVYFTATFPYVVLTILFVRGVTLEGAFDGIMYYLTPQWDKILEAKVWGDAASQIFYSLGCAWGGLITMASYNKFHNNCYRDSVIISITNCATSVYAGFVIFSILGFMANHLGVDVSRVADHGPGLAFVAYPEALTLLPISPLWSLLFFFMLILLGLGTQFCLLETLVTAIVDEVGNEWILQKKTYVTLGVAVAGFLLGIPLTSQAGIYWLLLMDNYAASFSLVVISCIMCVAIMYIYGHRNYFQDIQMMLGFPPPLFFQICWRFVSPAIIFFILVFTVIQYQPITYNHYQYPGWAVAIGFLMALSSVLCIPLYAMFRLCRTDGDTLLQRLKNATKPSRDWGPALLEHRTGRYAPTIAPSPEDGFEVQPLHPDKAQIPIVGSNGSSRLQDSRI

## NC1CCc2ccc(OCCNS(=O)(=O)CC3CC3)cc2C1Cc1ccccc1Cl (stereo not shown) [Example 295, N-{2-[7-Amino-8-(2-chloro-benzyl)-5,6,7,8-tetrahydro-naphthalen-2-yloxy]-ethyl}-C-cyclopropyl-methanesulfonamide hydrochloride]
  Ki: ≤ 1000 nM

## NC1CCc2ccc(CCCNS(=O)(=O)CC3CC3)cc2C1Cc1cccc(Cl)c1 (stereo not shown) [Example 296, N-{3-[7-Amino-8-(3-chloro-benzyl)-5,6,7,8-tetrahydro-naphthalen-2-yl]-propyl}-C-cyclopropyl-methanesulfonamide hydrochloride]
  Ki: ≤ 100 nM

## CCCS(=O)(=O)NCCCc1ccc2c(c1)C(Cc1cccc(Cl)c1)C(N)CC2 (stereo not shown) [Example 297, Propane-1-sulfonic acid {3-[7-amino-8-(3-chloro-benzyl)-5,6,7,8-tetrahydro-naphthalen-2-yl]-propyl}-amide hydrochloride]
  Ki: ≤ 100 nM

## CCOC(=O)NC1CCc2ccc(OCCNS(=O)(=O)c3cn(C)cn3)cc2C1Cc1ccccc1Cl (stereo not shown) [Example 298, {1-(2-Chloro-benzyl)-7-[2-(1-methyl-1H-imidazole-4-sulfonylamino)-ethoxy]-1,2,3,4-tetrahydro-naphthalen-2-yl}-carbamic acid ethyl ester]
  Ki: ≤ 10000 nM

## CCOC(=O)NC1CCc2ccc(OCCNS(=O)(=O)c3cnn(C)c3)cc2C1Cc1ccccc1Cl (stereo not shown) [Example 299, {1-(2-Chloro-benzyl)-7-[2-(1-methyl-1H-pyrazole-4-sulfonylamino)-ethoxy]-1,2,3,4-tetrahydro-naphthalen-2-yl}-carbamic acid ethyl ester]
  Ki: > 10000 nM

## CNC1CCc2ccc(OCCNS(=O)(=O)CC3CC3)cc2C1Cc1cccc(Cl)c1 (stereo not shown) [Example 300, N-{2-[8-(3-Chloro-benzyl)-7-methylamino-5,6,7,8-tetrahydro-naphthalen-2-yloxy]-ethyl}-C-cyclopropyl-methanesulfonamide hydrochloride]
  Ki: ≤ 10 nM

## Cn1cc(S(=O)(=O)NCCOc2ccc3c(c2)C(Cc2ccccc2Cl)C(N)CC3)cn1 (stereo not shown) [Example 301, 1-Methyl-1H-pyrazole-4-sulfonic acid {2-[7-amino-8-(2-chloro-benzyl)-5,6,7,8-tetrahydronaphthalen-2-yloxy]-ethyl}-amide hydrochloride]
  Ki: ≤ 10 nM

## CNC1CCc2ccc(OCCNS(=O)(=O)c3cnn(C)c3)cc2C1Cc1ccccc1Cl (stereo not shown) [Example 302, 1-Methyl-1H-pyrazole-4-sulfonic acid {2-[8-(2-chloro-benzyl)-7-methylamino-5,6,7,8-tetrahydro-naphthalen-2-yloxy]-ethyl}-amide hydrochloride]
  Ki: ≤ 100 nM

## CNC1CCc2ccc(OCCNS(=O)(=O)c3cn(C)cn3)cc2C1Cc1ccccc1Cl (stereo not shown) [Example 303, 1-Methyl-1H-imidazole-4-sulfonic acid {2-[8-(2-chloro-benzyl)-7-methylamino-5,6,7,8-tetrahydro-naphthalen-2-yloxy]-ethyl}-amide hydrochloride]
  Ki: ≤ 100 nM

## CCCS(=O)(=O)NCCc1ccc2c(c1)C(Cc1cccc(Cl)c1)C(N)CC2 (stereo not shown) [Example 304, Propane-1-sulfonic acid {2-[7-amino-8-(3-chloro-benzyl)-5,6,7,8-tetrahydro-naphthalen-2-yl]-ethyl}-amide hydrochloride]
  Ki: ≤ 1000 nM

## Cn1cnc(S(=O)(=O)NCCOc2ccc3c(c2)C(Cc2ccccc2Cl)C(N)CC3)c1 (stereo not shown) [Example 305, 1-Methyl-1H-imidazole-4-sulfonic acid {2-[7-amino-8-(2-chloro-benzyl)-5,6,7,8-tetrahydronaphthalen-2-yloxy]-ethyl}-amide hydrochloride]
  Ki: ≤ 100 nM

## CC(=O)NC1CCc2ccc(OCCNS(=O)(=O)CC3CC3)cc2C1Cc1cccc(Cl)c1 (stereo not shown) [Example 306, N-[1-(3-Chloro-benzyl)-7-(2-cyclopropylmethanesulfonylamino-ethoxy)-1,2,3,4-tetrahydronaphthalen-2-yl]-acetamide]
  Ki: ≤ 100 nM

## CCNC1CCc2ccc(OCCNS(=O)(=O)CC3CC3)cc2C1Cc1cccc(Cl)c1 (stereo not shown) [Example 307, N-{2-[8-(3-Chloro-benzyl)-7-ethylamino-5,6,7,8-tetrahydro-naphthalen-2-yloxy]-ethyl}-C-cyclopropyl-methanesulfonamide hydrochloride]
  Ki: ≤ 10 nM

## CCCS(=O)(=O)NCCCc1ccc2c(c1)C(Cc1cccc(Cl)c1)C(NC)CC2 (stereo not shown) [Example 308, Propane-1-sulfonic acid {3-[8-(3-chloro-benzyl)-7-methylamino-5,6,7,8-tetrahydronaphthalen-2-yl]-propyl}-amide hydrochloride]
  Ki: ≤ 10 nM

## CCCS(=O)(=O)NCCc1ccc2c(c1)C(Cc1cccc(Cl)c1)C(NC)CC2 (stereo not shown) [Example 309, Propane-1-sulfonic acid {2-[8-(3-chloro-benzyl)-7-methylamino-5,6,7,8-tetrahydronaphthalen-2-yl]-ethyl}-amide]
  Ki: ≤ 100 nM

## NC1CCc2ccc(CCNS(=O)(=O)CC3CC3)cc2C1Cc1cccc(Cl)c1 (stereo not shown) [Example 310, N-{2-[7-Amino-8-(3-chloro-benzyl)-5,6,7,8-tetrahydro-naphthalen-2-yl]-ethyl}-C-cyclopropyl-methanesulfonamide hydrochloride]
  Ki: ≤ 1000 nM

## CCCS(=O)(=O)NCCOc1ccc2c(c1)C(Cc1ccccc1F)C(NC)CC2 (stereo not shown) [Example 311, Propane-1-sulfonic acid {2-[8-(2-fluoro-benzyl)-7-methylamino-5,6,7,8-tetrahydronaphthalen-2-yloxy]-ethyl}-amide hydrochloride]
  Ki: ≤ 100 nM

## CNC1CCc2ccc(OCCNS(=O)(=O)CC3CC3)cc2C1Cc1ccccc1F (stereo not shown) [Example 312, C-Cyclopropyl-N-{2-[8-(2-fluoro-benzyl)-7-methylamino-5,6,7,8-tetrahydro-naphthalen-2-yloxy]-ethyl}-methanesulfonamide hydrochloride]
  Ki: ≤ 100 nM

## CNC1CCc2ccc(CCNS(=O)(=O)c3cn(C)cn3)cc2C1Cc1cccc(Cl)c1 (stereo not shown) [Example 313, 1-Methyl-1H-imidazole-4-sulfonic acid {2-[8-(3-chloro-benzyl)-7-methylamino-5,6,7,8-tetrahydro-naphthalen-2-yl]-ethyl}-amide]
  Ki: ≤ 100 nM

## CCCS(=O)(=O)NCCOc1ccc2c(c1)C(CC1CCCCC1)C(NC)CC2 (stereo not shown) [Example 314, Propane-1-sulfonic acid [2-(8-cyclohexylmethyl-7-methylamino-5,6,7,8-tetrahydronaphthalen-2-yloxy)-ethyl]-amide trifluoroacetate]
  Ki: ≤ 1000 nM

## Cn1cnc(S(=O)(=O)NCCOc2ccc3c(c2)C(Cc2ccccc2Cl)C(N2CCCC2)CC3)c1 (stereo not shown) [Example 315, 1-Methyl-1H-imidazole-4-sulfonic acid {2-[8-(2-chloro-benzyl)-7-pyrrolidin-1-yl-5,6,7,8-tetrahydro-naphthalen-2-yloxy]-ethyl}-amide hydrochloride]
  Ki: ≤ 1000 nM

## Cc1nc(S(=O)(=O)NCCOc2ccc3c(c2)C(Cc2cccc(Cl)c2)C(N)CC3)cn1C (stereo not shown) [Example 316, 1,2-Dimethyl-1H-imidazole-4-sulfonic acid {2-[7-amino-8-(3-chloro-benzyl)-5,6,7,8-tetrahydro-naphthalen-2-yloxy]-ethyl}-amide hydrochloride]
  Ki: ≤ 1000 nM

## O=S(=O)(CC1CC1)NCCOc1ccc2c(c1)C(Cc1cccc(Cl)c1)C(N1CCCC1)CC2 (stereo not shown) [Example 317, N-{2-[8-(3-Chloro-benzyl)-7-pyrrolidin-1-yl-5,6,7,8-tetrahydro-naphthalen-2-yloxy]-ethyl}-C-cyclopropyl-methanesulfonamide hydrochloride]
  Ki: ≤ 100 nM

## Cn1cc(S(=O)(=O)NCCOc2ccc3c(c2)C(Cc2cccc(Cl)c2)C(N2CCCC2)CC3)cn1 (stereo not shown) [Example 318, 1-Methyl-1H-pyrazole-4-sulfonic acid {2-[8-(3-chloro-benzyl)-7-pyrrolidin-1-yl-5,6,7,8-tetrahydro-naphthalen-2-yloxy]-ethyl}-amide hydrochloride]
  Ki: ≤ 10 nM

## Cn1cnc(S(=O)(=O)NCCOc2ccc3c(c2)C(Cc2cccc(Cl)c2)C(N2CCCC2)CC3)c1 (stereo not shown) [Example 319, 1-Methyl-1H-imidazole-4-sulfonic acid {2-[8-(3-chloro-benzyl)-7-pyrrolidin-1-yl-5,6,7,8-tetrahydro-naphthalen-2-yloxy]-ethyl}-amide hydrochloride]
  Ki: ≤ 100 nM

## O=S(=O)(CC1CC1)NCCOc1ccc2c(c1)C(Cc1cccc(Cl)c1)C(N1CCC1)CC2 (stereo not shown) [Example 320, N-{2-[7-Azetidin-1-yl-8-(3-chloro-benzyl)-5,6,7,8-tetrahydro-naphthalen-2-yloxy]-ethyl}-C-cyclopropyl-methanesulfonamide]
  Ki: ≤ 100 nM

## Cn1cnc(S(=O)(=O)NCCOc2ccc3c(c2)C(Cc2cccc(Cl)c2)C(N2CCC2)CC3)c1 (stereo not shown) [Example 321, 1-Methyl-1H-imidazole-4-sulfonic acid {2-[7-azetidin-1-yl-8-(3-chloro-benzyl)-5,6,7,8-tetrahydro-naphthalen-2-yloxy]-ethyl}-amide hydrochloride]
  Ki: ≤ 10 nM

## Cn1cc(S(=O)(=O)NCCOc2ccc3c(c2)C(Cc2cccc(Cl)c2)C(N2CCC2)CC3)cn1 (stereo not shown) [Example 322, 1-Methyl-1H-pyrazole-4-sulfonic acid {2-[7-azetidin-1-yl-8-(3-chloro-benzyl)-5,6,7,8-tetrahydro-naphthalen-2-yloxy]-ethyl}-amide hydrochloride]
  Ki: ≤ 10 nM

## CCCS(=O)(=O)NCCOc1ccc2c(c1)C(Cc1cccc(Cl)c1)C(N1CCCC1)CC2 (stereo not shown) [Example 323, Propane-1-sulfonic acid {2-[8-(3-chloro-benzyl)-7-pyrrolidin-1-yl-5,6,7,8-tetrahydronaphthalen-2-yloxy]-ethyl}-amide hydrochloride]
  Ki: ≤ 1000 nM

## Cn1cc(S(=O)(=O)NCCOc2ccc3c(c2)C(Cc2ccccc2)C(N2CCC2)CC3)cn1 (stereo not shown) [Example 324, 1-Methyl-1H-pyrazole-4-sulfonic acid [2-(7-azetidin-1-yl-8-benzyl-5,6,7,8-tetrahydronaphthalen-2-yloxy)-ethyl]amide hydrochloride]
  Ki: ≤ 10 nM

## CCCS(=O)(=O)CCc1ccc2c(c1)C(Cc1cccc(Cl)c1)C(N)CC2 (stereo not shown) [Example 326, 1-(3-Chloro-benzyl)-7-[2-(propane-1-sulfonyl)-ethyl]-1,2,3,4-tetrahydro-naphthalen-2-ylamine hydrochloride]
  Ki: ≤ 1000 nM
